Test results as given in patent US20100285141A1, “COMPOSITIONS AND METHODS FOR ENHANCING THE ACTIVITY OF PODOPHYLLOTOXIN” (DO-COOP TECHNOLOGIES LTD., priority 2008, published 2010).

Legend:
[1] = test system: PC3 prostate cancer cells; experiment: Etoposide in Neowater or deionized water, surviving cells by XTT dye uptake, PC3; assay type: cell-based, human; settings: PC3, 24 hours incubation, FIG. 1B
Excerpt: (§1) Two human prostate cancer cell lines were examined—LnCap and PC3.

[2] = test system: LnCap prostate cancer cells; experiment: Etoposide in Neowater or deionized water, surviving cells by XTT dye uptake, LnCap; assay type: cell-based, human; settings: 24 hours incubation, FIG. 1A
Excerpt: as §1

## COc1cc([C@@H]2c3cc4c(cc3[C@@H](O[C@@H]3O[C@@H]5CO[C@@H](C)O[C@H]5[C@H](O)[C@H]3O)[C@H]3COC(=O)[C@H]23)OCO4)cc(OC)c1O [etoposide, Etoposide]
[1]
  proliferation of cancer cells (cell growth): dose-dependent decrease
[2]
  proliferation of cancer cells (cell growth): dose-dependent decrease
